Experimental data published in the NIST ThermoML archive (doi:10.1016/j.jct.2010.08.010).

Details: Liquid, Buoyancy - hydrostatic balance with magnetic suspension - one sinker

CCO [ethanol]
Details	mass density [kg/m3]
233.15 K, 103.29 kPa	840.318
233.15 K, 1104.7 kPa	840.959
233.15 K, 2004.6 kPa	841.531
233.15 K, 4076.8 kPa	842.835
233.15 K, 6134.1 kPa	844.107
233.15 K, 8092.6 kPa	845.306
233.15 K, 10007 kPa	846.455
233.15 K, 12137 kPa	847.721
233.15 K, 14139 kPa	848.897
233.15 K, 16099 kPa	850.035
233.15 K, 18082 kPa	851.168
233.15 K, 20011 kPa	852.258
233.15 K, 22096 kPa	853.419
233.15 K, 24040 kPa	854.493
233.15 K, 25991 kPa	855.559
233.15 K, 27978 kPa	856.635
233.15 K, 29956 kPa	857.691
253.15 K, 102.67 kPa	823.303
253.15 K, 1104.1 kPa	824.013
253.15 K, 2003.9 kPa	824.651
253.15 K, 4116.4 kPa	826.119
253.15 K, 6065.7 kPa	827.455
253.15 K, 8137.6 kPa	828.849
253.15 K, 10136 kPa	830.174
253.15 K, 12072 kPa	831.443
253.15 K, 14126 kPa	832.763
253.15 K, 16133 kPa	834.037
253.15 K, 17950 kPa	835.17
253.15 K, 19863 kPa	836.357
253.15 K, 22055 kPa	837.687
253.15 K, 23993 kPa	838.859
253.15 K, 25929 kPa	840.004
253.15 K, 27985 kPa	841.212
253.15 K, 30009 kPa	842.379
273.15 K, 102.91 kPa	806.406
273.15 K, 1099 kPa	807.191
273.15 K, 2003.9 kPa	807.905
273.15 K, 4161.8 kPa	809.57
273.15 K, 6026.6 kPa	810.981
273.15 K, 8023.2 kPa	812.466
273.15 K, 10006 kPa	813.916
273.15 K, 12107 kPa	815.421
273.15 K, 13929 kPa	816.718
273.15 K, 15980 kPa	818.142
273.15 K, 17875 kPa	819.435
273.15 K, 20011 kPa	820.885
273.15 K, 21848 kPa	822.104
273.15 K, 24050 kPa	823.548
273.15 K, 25880 kPa	824.728
273.15 K, 27865 kPa	826.002
273.15 K, 29956 kPa	827.312
293.15 K, 103.01 kPa	789.433
293.15 K, 1103.9 kPa	790.313
293.15 K, 2004 kPa	791.096
293.15 K, 4147.8 kPa	792.937
293.15 K, 6147.5 kPa	794.616
293.15 K, 8110.8 kPa	796.232
293.15 K, 10008 kPa	797.758
293.15 K, 11860 kPa	799.229
293.15 K, 13880 kPa	800.802
293.15 K, 15954 kPa	802.391
293.15 K, 17852 kPa	803.817
293.15 K, 19967 kPa	805.383
293.15 K, 21842 kPa	806.743
293.15 K, 23888 kPa	808.2
293.15 K, 25963 kPa	809.658
293.15 K, 27862 kPa	810.975
293.15 K, 30031 kPa	812.452
313.15 K, 102.5 kPa	772.101
313.15 K, 1103.5 kPa	773.094
313.15 K, 2103.5 kPa	774.069
313.15 K, 4116 kPa	775.994
313.15 K, 6079.7 kPa	777.835
313.15 K, 8130.4 kPa	779.714
313.15 K, 10007 kPa	781.394
313.15 K, 12116 kPa	783.241
313.15 K, 14081 kPa	784.928
313.15 K, 16092 kPa	786.617
313.15 K, 18056 kPa	788.235
313.15 K, 19919 kPa	789.747
313.15 K, 22046 kPa	791.432
313.15 K, 24130 kPa	793.056
313.15 K, 26107 kPa	794.571
313.15 K, 27987 kPa	795.987
313.15 K, 29995 kPa	797.476
333.15 K, 1102.5 kPa	755.18
333.15 K, 2002.7 kPa	756.173
333.15 K, 4085.9 kPa	758.43
333.15 K, 6133 kPa	760.589
333.15 K, 8031.9 kPa	762.538
333.15 K, 9967.1 kPa	764.48
333.15 K, 12099 kPa	766.557
333.15 K, 13992 kPa	768.358
333.15 K, 16124 kPa	770.342
333.15 K, 18019 kPa	772.071
333.15 K, 20012 kPa	773.85
333.15 K, 22050 kPa	775.625
333.15 K, 24136 kPa	777.409
333.15 K, 26130 kPa	779.08
333.15 K, 28069 kPa	780.679
333.15 K, 30018 kPa	782.258
353.15 K, 1101.8 kPa	736.102
353.15 K, 2002.9 kPa	737.255
353.15 K, 4009.6 kPa	739.749
353.15 K, 5946.1 kPa	742.072
353.15 K, 8005.6 kPa	744.473
353.15 K, 10092 kPa	746.834
353.15 K, 12108 kPa	749.042
353.15 K, 14010 kPa	751.074
353.15 K, 16061 kPa	753.214
353.15 K, 18136 kPa	755.321
353.15 K, 20137 kPa	757.302
353.15 K, 22100 kPa	759.195
353.15 K, 24062 kPa	761.047
353.15 K, 26069 kPa	762.906
353.15 K, 28075 kPa	764.73
353.15 K, 30016 kPa	766.442
373.15 K, 1102.9 kPa	715.263
373.15 K, 2003.4 kPa	716.613
373.15 K, 4088.3 kPa	719.636
373.15 K, 6108.7 kPa	722.45
373.15 K, 8076 kPa	725.091
373.15 K, 10096 kPa	727.71
373.15 K, 12124 kPa	730.256
373.15 K, 14044 kPa	732.583
373.15 K, 16078 kPa	734.983
373.15 K, 18122 kPa	737.319
373.15 K, 20098 kPa	739.516
373.15 K, 22116 kPa	741.702
373.15 K, 24049 kPa	743.742
373.15 K, 26068 kPa	745.822
373.15 K, 28108 kPa	747.871
373.15 K, 29942 kPa	749.678
393.15 K, 1102.9 kPa	691.923
393.15 K, 2003.6 kPa	693.559
393.15 K, 3981 kPa	697.012
393.15 K, 6085.6 kPa	700.514
393.15 K, 8006.1 kPa	703.56
393.15 K, 10040 kPa	706.659
393.15 K, 12072 kPa	709.623
393.15 K, 14119 kPa	712.504
393.15 K, 16086 kPa	715.168
393.15 K, 18081 kPa	717.782
393.15 K, 19900 kPa	720.097
393.15 K, 22039 kPa	722.726
393.15 K, 24041 kPa	725.121
393.15 K, 26092 kPa	727.505
393.15 K, 28070 kPa	729.738
393.15 K, 29851 kPa	731.71
413.15 K, 1102.6 kPa	665.097
413.15 K, 2002.8 kPa	667.194
413.15 K, 4113.3 kPa	671.781
413.15 K, 6094.1 kPa	675.838
413.15 K, 8091.5 kPa	679.694
413.15 K, 10044 kPa	683.283
413.15 K, 11973 kPa	686.66
413.15 K, 14085 kPa	690.174
413.15 K, 16053 kPa	693.316
413.15 K, 18080 kPa	696.427
413.15 K, 20003 kPa	699.262
413.15 K, 22069 kPa	702.204
413.15 K, 24049 kPa	704.916
413.15 K, 26035 kPa	707.559
413.15 K, 27916 kPa	709.988
413.15 K, 30021 kPa	712.618
433.15 K, 2003.3 kPa	636.052
433.15 K, 4004.9 kPa	641.895
433.15 K, 6117.7 kPa	647.513
433.15 K, 7970.2 kPa	652.088
433.15 K, 10076 kPa	656.927
433.15 K, 12092 kPa	661.27
433.15 K, 14024 kPa	665.195
433.15 K, 16095 kPa	669.184
433.15 K, 17956 kPa	672.597
433.15 K, 20025 kPa	676.22
433.15 K, 22076 kPa	679.658
433.15 K, 23970 kPa	682.703
433.15 K, 26097 kPa	685.993
433.15 K, 27971 kPa	688.786
433.15 K, 29931 kPa	691.61
453.15 K, 2000.7 kPa	597.505
453.15 K, 4003.1 kPa	606.126
453.15 K, 5998.3 kPa	613.615
453.15 K, 7995.3 kPa	620.308
453.15 K, 10007 kPa	626.429
453.15 K, 12086 kPa	632.177
453.15 K, 14048 kPa	637.222
453.15 K, 15954 kPa	641.798
453.15 K, 17939 kPa	646.288
453.15 K, 20012 kPa	650.704
453.15 K, 22018 kPa	654.751
453.15 K, 24140 kPa	658.813
453.15 K, 25982 kPa	662.178
453.15 K, 28127 kPa	665.939
453.15 K, 30017 kPa	669.115
473.15 K, 4002.6 kPa	562.328
473.15 K, 6007.1 kPa	573.872
473.15 K, 8001.4 kPa	583.438
473.15 K, 10006 kPa	591.752
473.15 K, 12009 kPa	599.085
473.15 K, 14093 kPa	605.96
473.15 K, 15977 kPa	611.66
473.15 K, 18013 kPa	617.325
473.15 K, 20010 kPa	622.485
473.15 K, 21973 kPa	627.259
473.15 K, 24020 kPa	631.94
473.15 K, 25868 kPa	635.925
473.15 K, 28002 kPa	640.289
473.15 K, 30014 kPa	644.229
